Where two headings read alike, the source gives them in different places.
Target: Human opiate κ receptors (Homo sapiens, UniProt P41145)
Assay: κ opioid receptor functional assay, [35S]GTPγS binding (assay C)
Format: biochemical
Conditions: for activation at 1 µM: 0.5 h, read-out: % activation functional assay at 1 μM
[1] = read-out: EC50 (nM) [35S]GTPγS binding

Chain of Human opiate κ receptors (P41145 whole entry): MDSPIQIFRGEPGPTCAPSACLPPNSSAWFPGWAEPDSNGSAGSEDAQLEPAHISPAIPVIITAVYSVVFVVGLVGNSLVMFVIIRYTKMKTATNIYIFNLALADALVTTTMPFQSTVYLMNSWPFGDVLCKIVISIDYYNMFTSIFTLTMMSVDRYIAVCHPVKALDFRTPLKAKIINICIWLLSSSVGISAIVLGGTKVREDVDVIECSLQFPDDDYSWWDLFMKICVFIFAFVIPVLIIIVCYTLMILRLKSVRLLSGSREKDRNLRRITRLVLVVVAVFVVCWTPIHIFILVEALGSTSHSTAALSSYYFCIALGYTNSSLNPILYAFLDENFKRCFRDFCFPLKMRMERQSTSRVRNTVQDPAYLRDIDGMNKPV

SMILES	activation at 1 µM	EC50 (GTPγS EC50 (nM))	also measured
COC(=O)N1CCN(C(=O)Cc2ccc(C(F)(F)F)c(Cl)c2)[C@@H]2[C@@H](N3CCCC3)CCC[C@@H]21 [Example 93]	101%	< 10 nM	
COC(=O)CC(=O)N1CCN(C(=O)Cc2ccc(Cl)c(Cl)c2)C2C(N3CCCC3)CCCC21 (racemic) [Example 36]	93%	< 10 nM	activation (% of control) at 1 μM: 93 % of control; EC50 (EC50 (nM) [35S]GTPγS binding): 9.74 nM
O=C(C1CCNC1)N1CCN(C(=O)Cc2ccc(Cl)c(Cl)c2)C2C(N3CCCC3)CCCC21 (racemic) [Example 78]	64%	100 to 1000 nM	
COC(=O)CC(=O)N1CCN(C(=O)Cc2ccc(Cl)c(Cl)c2)C2C(N3CCCC3)CCCC21 (stereo not shown) [P, reference compound]			activation (% of control) at 1 μM: 81 % of control; EC50 [1]: 220 nM
COc1ccc(CN2CCN(C(=O)Cc3ccc(Cl)c(Cl)c3)C3C(N4CCCC4)CCCC32)cc1 (stereo not shown) [X, reference compound]			activation (% of control) at 1 μM: 91 % of control; EC50 [1]: 26 nM
CC(C)OC(=O)COC(=O)N1CCN(C(=O)Cc2ccc(Cl)c(Cl)c2)[C@@H]2[C@@H](N3CCCC3)CCC[C@@H]21 [Example 107]	104%	< 10 nM	
O=C(c1ccccc1)N1CCN(C(=O)Cc2ccc(Cl)c(Cl)c2)C2C(N3CCCC3)CCCC21 (stereo not shown) [L, reference compound]			activation (% of control) at 1 μM: 74 % of control
COC(=O)N1CCN(C(=O)Cc2ccc(Cl)cc2)C2C(N3CCCC3)CCCC21 (racemic) [Example 47]	101%	< 10 nM	
O=C(Nc1ccccc1)N1CCN(C(=O)Cc2ccc(Cl)c(Cl)c2)C2C(N3CCCC3)CCCC21 (racemic) [Example 43]	107%	< 10 nM	
COC(=O)N1CCN(C(=O)Cc2ccc(Cl)c(Cl)c2)[C@@H]2[C@H]1CCC[C@@H]2N1CCCC1 (racemic) [Reference compound E, reference compound]	68%		
COC(=O)N1CCN(C(=O)Cc2ccc(F)c(Cl)c2)C2C(N3CCCC3)CCCC21 (racemic) [Example 20]	96%	< 10 nM	
COC(=O)N1CCN(C(=O)Cc2ccc(C(F)(F)F)c(Cl)c2)C2C(N3CCCC3)CCCC21 (racemic) [Example 50]	118%	< 10 nM	
CN(C)C(=O)N1CCN(C(=O)Cc2ccc(Cl)c(Cl)c2)C2C(N3CCCC3)CCCC21 (racemic) [Example 34]	107%	10 to 100 nM	
COC(=O)N1CCN(C(=O)Cc2cccc(C(F)(F)F)c2)[C@@H]2[C@@H](N3CC[C@H](O)C3)CCC[C@@H]21 [Example 142]	106%	10 to 100 nM	
COC(=O)N1CCN(C(=O)Cc2ccc3ccccc3c2)C2C(N3CCCC3)CCCC21 (racemic) [Example 10]	100%	10 to 100 nM	
COC(=O)N1CCN(C(=O)Cc2ccc(Cl)c(F)c2)C2C(N3CCC(O)C3)CCCC21.Cl (stereo not shown) [Example 115]			% activation functional assay at 1 μM: 103%; EC50 (read-out: GTPγS EC50): 10 to 100 nM
CNC(=O)N1CCN(C(=O)Cc2ccc(Cl)c(Cl)c2)C2C(N3CCCC3)CCCC21 (racemic) [Example 62]	104%	10 to 100 nM	
CN(C)C(=O)C(=O)N1CCN(C(=O)Cc2ccc(Cl)c(Cl)c2)[C@@H]2[C@@H](N3CCCC3)CCC[C@@H]21.Cl [Example 116]			% activation functional assay at 1 μM: 111%; EC50 (read-out: GTPγS EC50): 10 to 100 nM
CCC(=O)N1CCN(C(=O)Cc2ccc(Cl)c(Cl)c2)C2C(N3CCCC3)CCCC21 (stereo not shown) [N, reference compound]			activation (% of control) at 1 μM: 63 % of control; EC50 [1]: 600 nM
O=C(O)CNC(=O)N1CCN(C(=O)Cc2ccc(Cl)c(Cl)c2)C2C(N3CCCC3)CCCC21 (racemic) [Example 77]	98%	10 to 100 nM	
O=C(C1CCC1)N1CCN(C(=O)Cc2ccc(Cl)c(Cl)c2)C2C(N3CCCC3)CCCC21 (racemic) [Example 27]	103%	< 10 nM	
COC(=O)N1CCN(C(=O)Cc2ccc(Cl)c(Cl)c2)C2C1CCCC2N(C)C(C)C (racemic) [Example 13]	98%	< 10 nM	
O=C(C1CCCC1)N1CCN(C(=O)Cc2ccc(Cl)c(Cl)c2)C2C(N3CCCC3)CCCC21 (racemic) [Example 51]	97%	< 10 nM	
O=C(CO)N1CCN(C(=O)Cc2ccc(Cl)c(Cl)c2)C2C(N3CCCC3)CCCC21 (racemic) [Example 59]	109%	10 to 100 nM	
COC(=O)N1CCN(C(=O)Cc2ccc(Cl)c(Cl)c2)C2C(N3CCC(O)CC3)CCCC21 (racemic) [Example 88]			% activation functional assay at 1 μM: 107%; EC50 (read-out: GTPγS EC50): < 10 nM
O=C(Cc1ccc(Cl)c(Cl)c1)N1CCN(Cc2ccccc2)[C@H]2CCC[C@H](N3CCCC3)[C@H]21 (racemic) [Example 15]	89%	< 10 nM	activation (% of control) at 1 μM: 89 % of control; EC50 (EC50 (nM) [35S]GTPγS binding): 7.39 nM

SMILES	activation at 1 µM	EC50 (GTPγS EC50 (nM))	also measured
COC(=O)c1ccc(C(=O)N2CCN(C(=O)Cc3ccc(Cl)c(Cl)c3)C3C(N4CCCC4)CCCC32)nc1 (racemic) [Example 85]	101%		
O=C(Cc1ccc(Cl)c(Cl)c1)N1CCN(Cc2cnc[nH]2)C2CCCC(N3CCCC3)C21 (racemic) [Example 49]	112%	< 10 nM	activation (% of control) at 1 μM: 112 % of control; EC50 (EC50 (nM) [35S]GTPγS binding): 6.65 nM
O=C(Cc1ccc(Cl)c(Cl)c1)N1CCN(Cc2cccnc2)[C@@H]2CCC[C@H](N3CCCC3)[C@H]21 (racemic) [Y, reference compound]			activation (% of control) at 1 μM: 96 % of control; EC50 (EC50 (nM) [35S]GTPγS binding): 34 nM
COC(=O)CC(=O)N1CCN(C(=O)Cc2ccc(Cl)c(Cl)c2)C2C(N3CCC(O)C3)CCCC21 (stereo not shown) [U, reference compound]			activation (% of control) at 1 μM: 86 % of control; EC50 [1]: 170 nM
CC(C)NC(=O)N1CCN(C(=O)Cc2ccc(Cl)c(Cl)c2)C2C(N3CCC(O)C3)CCCC21.Cl (stereo not shown) [Example 120]			% activation functional assay at 1 μM: 100%; EC50 (read-out: GTPγS EC50): < 10 nM
COC(=O)N1CCN(C(=O)Cc2ccc(Cl)c(Cl)c2)[C@H]2[C@H](N3CCCC3)CCC[C@@H]21 (racemic) [Reference compound B, reference compound]	90%		activation (% of control) at 1 μM: 90 % of control
COC(=O)N1CCN(C(=O)Cc2ccc(F)c(Cl)c2)C2C(N3CCC(O)C3)CCCC21.Cl (stereo not shown) [Example 110]			% activation functional assay at 1 μM: 92%; EC50 (read-out: GTPγS EC50): 10 to 100 nM
COC(=O)COC(=O)N1CCN(C(=O)Cc2ccc(Cl)c(Cl)c2)C2C(N3CCCC3)CCCC21 (racemic) [Example 67]	106%	< 10 nM	
COC(=O)N1CCN(C(=O)Cc2ccc(Cl)s2)C2C(N3CCCC3)CCCC21 (racemic) [Example 8]	97%	10 to 100 nM	
COC(=O)N1CCN(C(=O)Cc2ccc(F)c(F)c2)C2C(N3CCCC3)CCCC21 (racemic) [Example 18]	112%	< 10 nM	
COC(=O)N1CCN(C(=O)Cc2cccc([N+](=O)[O-])c2)C2C(N3CCCC3)CCCC21 (racemic) [Example 3]	105%	10 to 100 nM	
O=C(O)CC(=O)N1CCN(C(=O)Cc2ccc(Cl)c(Cl)c2)C2C(N3CCC(O)C3)CCCC21 (mixture of isomers) [T, reference compound]			activation (% of control) at 1 μM: 11 % of control; activation of the kappa opioid receptors at 1 μM: no or little activation; EC50 (EC50 (nM) [35S]GTPγS binding): > 1000 nM
O=C(Cc1ccc(Cl)c(Cl)c1)N1CCN(Cc2cccnc2)C2CCCC(N3CCC(O)C3)C21 (mixture of isomers) [AC, reference compound]			activation (% of control) at 1 μM: 102 % of control; EC50 (EC50 (nM) [35S]GTPγS binding): 77 nM
COC(=O)C(=O)N1CCN(C(=O)Cc2ccc(Cl)c(Cl)c2)C2C(N3CCCC3)CCCC21.Cl (stereo not shown) [Example 103]			% activation functional assay at 1 μM: 98%; EC50 (read-out: GTPγS EC50): < 10 nM
COC(=O)N1CCN(C(=O)Cc2cc(Cl)c3c(c2)OCCO3)C2C(N3CCCC3)CCCC21 (racemic) [Example 7]	101%	10 to 100 nM	
COC(=O)N1CCN(C(=O)Cc2cccc(Cl)c2)C2C(N3CCCC3)CCCC21 (racemic) [Example 46]	96%	< 10 nM	
CCOC(=O)N1CCN(C(=O)Cc2ccc(Cl)c(Cl)c2)C2C(N3CCCC3)CCCC21 (racemic) [O, reference compound]			activation (% of control) at 1 μM: 88 % of control; EC50 [1]: 150 nM
CS(=O)(=O)N1CCN(C(=O)Cc2ccc(Cl)c(Cl)c2)[C@@H]2[C@@H](N3CCCC3)CCC[C@@H]21 [Example 102]	106%	< 10 nM	
O=C(O)COC(=O)N1CCN(C(=O)Cc2ccc(Cl)c(Cl)c2)C2C(N3CCCC3)CCCC21 (racemic) [Example 69]	101%	10 to 100 nM	
CCN(C)C1CCCC2C1N(C(=O)Cc1ccc(Cl)c(Cl)c1)CCN2C(=O)OC (racemic) [Example 45]	91%	< 10 nM	
COC(=O)N1CCN(C(=O)Cc2ccc(F)c(F)c2)[C@@H]2[C@@H](N3CC[C@H](O)C3)CCC[C@@H]21 [Example 138]	108%	10 to 100 nM	
COC(=O)N1CCN(C(=O)Cc2ccc(Cl)c(Cl)c2)[C@H]2[C@H](N3CCCC3)CCC[C@H]21 (single isomer, unassigned) [Reference compound A, reference compound]	51%		
COC(=O)COC(=O)N1CCN(C(=O)Cc2ccc(Cl)c(Cl)c2)[C@@H]2[C@@H](N3CCCC3)CCC[C@@H]21 [Example 101]	99%	< 10 nM	
CS(=O)(=O)N1CCN(C(=O)Cc2ccc(Cl)c(Cl)c2)C2C(N3CCCC3)CCCC21 (racemic) [Example 23]	91%	< 10 nM	
O=C(C=Cc1ccoc1)N1CCN(C(=O)Cc2ccc(Cl)c(Cl)c2)C2C(N3CCCC3)CCCC21 (racemic) [Example 79]	102%		
Cl.O=C(OCc1ccccc1)N1CCN(C(=O)Cc2ccc(Cl)c(Cl)c2)C2C(N3CCCC3)CCCC21 (stereo not shown) [Example 95]			% activation functional assay at 1 μM: 104%; EC50 (read-out: GTPγS EC50): < 10 nM

— patent US20160122307A1, “PERHYDROQUINOXALINE DERIVATIVES” (DR. AUGUST WOLFF GMBH & CO. KG ARZNEIMITTEL, priority 2013, published 2016)
